Assay results: patent publication US8618101B2, “N-((1R,2S,5R)-5-(tert-butylamino)-2-((S)-3-(7-tert-butylpyrazolo[1,5-a][1,3,5]triazin-4-ylamino)-2-oxopyrrolidin-1-yl)cyclohexyl)acetamide, a dual modulator of chemokine receptor activity, crystalline forms and processes” (Bristol-Myers Squibb Company, priority 2009, dated 2013)
Where two headings read alike, the source gives them in different places.

Legend:
hERG = biological target: T1, hERG (Homo sapiens, UniProt Q12809); experiment: hERG Flux (Tl+ flux, FLIPR); assay type: cell-based; conditions: HEK293 cells expressing hERG
T1 construct: expressed in transfected cells; host or cells: HEK293
Description: HEK293 cells stably-expressing hERG channels were grown (37° C., 5% CO2) in Dulbecco's Modified Eagle's Media supplemented with 10% Sigma fetal bovine serum, non-essential amino acids, 2 mM L-glutamine and 500 μg/ml G418, at incubator. Cell dissociation buffer was used to extract the cells from flasks, which were then plated into 384-well CORNING® poly-D-lysine coated black/clear plates at a density of 2×10^4 cells per well (20 μl) in 10% serum media, and incubated for 15-24 hours at 37° C. in a 5% CO2 incubator until a confluent monolayer of cells was obtained. […]
The test compound was diluted to 10 mM DMSO in 60 μl. […] Assay-ready plates were generated by stamping 2.5 μl from the DMSO serially diluted plate, which was prepared on the Velocity 11 BIOCEL®. Aqueous plates were created by adding 48 μl of EP buffer and then were diluted 30-45 minutes before the assay was read on the FLIPR®. […] Assay-ready aqueous plates were prepared and diluted on a CyBio liquid handler.
Cells loaded with dye were read on the FLIPR®384 (Molecular Devices, Sunnyvale, Calif.), which excites the dye using the 488 nm line of an argon laser. […]
The dynamic range of the assay was determined from blanks and totals wells. […] Data were analyzed by fitting maximum amplitudes of change in fluorescence for Tl^+ flux for a given condition of test compound.

CCR-2 = CCR-2 (Homo sapiens, UniProt P41597); experiment: In vivo receptor occupancy in blood of hCCR-2 KI mice (Gaddum equation); conditions: for % Example 1 bound CCR-2 / % free CCR-2 / % mouse MCP-1 bound CCR-2: 48 h
Excerpt: (§1) The caveat for this estimation is that only CCR-2 and its major ligand MCP-1 were taken into consideration. The receptor occupancy of a ligand in the presence of a competitive inhibitor is defined by the Gaddum equation: […]
Since Example 1 is a competitive inhibitor of MCP-1 binding to CCR-2, the amounts of both mouse MCP-1/CCR-2 receptor complex and Example 1/CCR-2 receptor complex can be determined using the serum levels of both mouse MCP-1 and protein-unbound Example 1 in plasma. […] The fraction of mouse MCP-1/CCR-2 receptor complexes is determined using the form of the equation described above. To determine the fraction of Example 1/CCR-2 complexes the equation is re-defined as:
[formula] Finally, the amount of CCR-2 free is determined from: [CCR-2]total=[CCR-2]free+[mouse MCP-1/CCR-2]+[Example 1/CCR-2]

[1] = Plasma levels of Example 1 and mouse MCP-1 in the 48-hour TG peritonitis model; assay type: in vivo; conditions: mouse, read-out: Concentration of free Example 1 in plasma (nM) (fold IC90 CCR-2 binding)
Description: For the 48-hour TG peritonitis study, Example 1 was dosed twice a day with the first dose one hour prior to TG injection. Total peritoneal cell counts were obtained on isolated cells by a cell counter. Cytospins were performed to determine differential leukocyte counts. The cells were stained for 3 minutes with Wright-Giemsa Stain (Sigma-Aldrich) and then rinsed with deionized water for 5 minutes. Differential counts were calculated based on a total of 200 cells counted per sample. Blood was also collected from the retro-orbital sinus at the end of each study in EDTA for determination of drug concentration.
as §1

[2] = 200 mg/kg (different study), oral BID

Chain of CCR-2 (P41597 whole entry): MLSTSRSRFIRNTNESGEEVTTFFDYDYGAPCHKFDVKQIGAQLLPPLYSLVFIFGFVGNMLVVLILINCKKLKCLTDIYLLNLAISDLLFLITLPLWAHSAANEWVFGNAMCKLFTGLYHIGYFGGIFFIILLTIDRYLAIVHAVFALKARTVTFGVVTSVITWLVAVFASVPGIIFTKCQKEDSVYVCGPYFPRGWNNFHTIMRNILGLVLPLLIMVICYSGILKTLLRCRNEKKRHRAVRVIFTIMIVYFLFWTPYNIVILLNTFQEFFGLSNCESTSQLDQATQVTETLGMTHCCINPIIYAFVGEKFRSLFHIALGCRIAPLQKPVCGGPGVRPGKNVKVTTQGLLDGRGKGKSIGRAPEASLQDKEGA
T1 sequence (Q12809 whole entry): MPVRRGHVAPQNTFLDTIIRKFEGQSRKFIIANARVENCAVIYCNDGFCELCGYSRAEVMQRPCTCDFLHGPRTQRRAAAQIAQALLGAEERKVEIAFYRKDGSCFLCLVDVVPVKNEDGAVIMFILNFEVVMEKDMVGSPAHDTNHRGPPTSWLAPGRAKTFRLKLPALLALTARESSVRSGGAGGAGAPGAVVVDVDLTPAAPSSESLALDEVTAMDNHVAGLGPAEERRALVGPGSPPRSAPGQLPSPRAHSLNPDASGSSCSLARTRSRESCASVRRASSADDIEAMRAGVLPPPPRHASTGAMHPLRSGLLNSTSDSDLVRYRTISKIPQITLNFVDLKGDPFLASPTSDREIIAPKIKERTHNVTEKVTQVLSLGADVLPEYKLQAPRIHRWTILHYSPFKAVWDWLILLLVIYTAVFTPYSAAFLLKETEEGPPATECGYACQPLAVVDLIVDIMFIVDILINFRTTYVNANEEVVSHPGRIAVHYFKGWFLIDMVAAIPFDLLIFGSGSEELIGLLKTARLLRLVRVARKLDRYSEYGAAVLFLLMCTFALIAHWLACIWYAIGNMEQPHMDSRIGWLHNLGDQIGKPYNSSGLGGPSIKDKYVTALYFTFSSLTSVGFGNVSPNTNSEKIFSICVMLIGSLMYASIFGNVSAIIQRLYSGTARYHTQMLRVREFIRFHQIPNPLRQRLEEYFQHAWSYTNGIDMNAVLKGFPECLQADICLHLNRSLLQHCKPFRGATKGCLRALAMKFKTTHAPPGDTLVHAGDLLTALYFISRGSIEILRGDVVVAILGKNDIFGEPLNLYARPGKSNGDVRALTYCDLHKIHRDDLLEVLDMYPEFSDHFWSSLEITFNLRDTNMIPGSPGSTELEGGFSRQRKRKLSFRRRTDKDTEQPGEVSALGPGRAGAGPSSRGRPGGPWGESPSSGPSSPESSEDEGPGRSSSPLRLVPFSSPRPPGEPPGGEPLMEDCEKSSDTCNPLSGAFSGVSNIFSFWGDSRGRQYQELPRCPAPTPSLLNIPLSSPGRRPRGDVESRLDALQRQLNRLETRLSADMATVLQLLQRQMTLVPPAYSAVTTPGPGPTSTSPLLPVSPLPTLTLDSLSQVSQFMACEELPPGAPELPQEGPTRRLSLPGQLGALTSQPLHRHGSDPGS

CC(=O)N[C@@H]1C[C@H](NC(C)(C)C)CC[C@@H]1N1CC[C@H](Nc2ncnc3cc(C(C)(C)C)nn23)C1=O [Example 1, N-((1R,2 S,5R)-5-(tert-Butylamino)-2-((S)-3-(7-tert-butylpyrazolo[1,5-a][1,3,5]triazin-4-ylamino)-2-oxopyrrolidin-1-yl)cyclohexyl)acetamide]
IC50 (hERG): > 80 µM
% Example 1 bound CCR-2 (CCR-2; 10 mg/kg oral BID): 48.15%
% free CCR-2 (CCR-2; 10 mg/kg oral BID): 50.68%
% mouse MCP-1 bound CCR-2 (CCR-2; 10 mg/kg oral BID): 1.17%
% Example 1 bound CCR-2 (CCR-2; 50 mg/kg oral BID): 88.74%
% free CCR-2 (CCR-2; 50 mg/kg oral BID): 10.69%
% mouse MCP-1 bound CCR-2 (CCR-2; 50 mg/kg oral BID): 0.56%
% Example 1 bound CCR-2 (CCR-2; 160 mg/kg oral BID): 96.72%
% free CCR-2 (CCR-2; 160 mg/kg oral BID): 3.12%
% mouse MCP-1 bound CCR-2 (CCR-2; 160 mg/kg oral BID): 0.16%
% Example 1 bound CCR-2 (CCR-2; [2]): 98.45%
% free CCR-2 (CCR-2; [2]): 1.44%
% mouse MCP-1 bound CCR-2 (CCR-2; [2]): 0.11%
CCR-2 occupancy at maximal inhibition of monocyte/macrophage infiltration (CCR-2; hCCR-2 KI mouse TG peritonitis): 98.5%
concentration at 48 h ([1]; hCCR-2 KI, oral, 10 mg/kg): 1.9 nM
concentration at 48 h ([1]; hCCR-2 KI, oral, 50 mg/kg): 16.6 nM
concentration at 48 h ([1]; hCCR-2 KI, oral, 200 mg/kg): 136 nM
concentration at 48 h ([1]; 160 mg/kg oral BID, 48 h, hCCR-2 KI mice): 62 nM
